How the values were obtained:
HT1080 cells = test: Lipid droplet staining with BODIPY 493/503; type: cell-based, human; details: CPBA 100 μM; T863 10 μM and PF-06424439 5 μM; 16 h
Protocol: HT1080 cells were seeded on glass coverslips (15,000 cells per well of 12-well plate) in complete DMEM, and incubated for 16 h with 100 μM CPBA or with 0.1% of the DMSO solvent control, in the absence or presence of inhibitors of DGAT1 and DGAT2 (10 μM T863/iDGAT1; 5 μM PF-06424439/iDGAT2). Cells were fixed with 4% para-formaldehyde, lipid droplets were stained with the neutral lipid droplet stain BODIPY 493/503 (2 μM, 30 min), and nuclei were counterstained with 4′,6-diamidino-2-phenylindole (DAPI). Cells were mounted with Immu-Mount (Fisher Scientific), and imaged by fluorescence microscopy on a THUNDER imager (THUNDER Imager Live Cell & 3D Cell Culture & 3D Assay system, Leica DMI8; Leica Microsystems), using a 63× objective.
We next investigated the impact of CPBA on triglyceride levels and ferroptosis sensitivity by first imaging lipid droplets with the neutral lipid stain BODIPY 493/503.
The diglyceride acyltransferase isoforms 1 and 2 (DGAT1, DGAT2) are required to catalyze the formation of triglycerides from diacylglycerol and acyl-CoA.

[1] = tested on: GPX4-KO/FSP1-OE HT1080 cells; test: Viability of FSP1-dependent GPX4-KO cells with serial dilutions of CPBA, no FINs; type: cell-based, human; details: serial dilutions of CPBA, no FINs
Protocol: The following HT1080 fibrosarcoma cell lines were generated using CRISPR/Cas9 technology, as previously described (Doll et al., 2019): HT1080 GPX4-knockout (KO) cells (maintained in the presence of 100 μM α-tocopherol); HT1080 GPX4 knockout cells overexpressing FSP1 (GPX4-KO/FSP1-OE); GPX4-KO cells overexpressing FSP1 and re-expressing GPX4 (GPX4-KO/FSP1-OE/GPX4-OE); HT1080 FSP1-WT or FSP1-KO cells; and HT1080 FSP1-KO cells reconstituted with either FSP1-WT or FSP1-G2A. LOX-IMVI (BRAF V600E heterozygous human melanoma cells) expressing either the Venus mock vector or FSP1-Venus (Doll et al., 2019) were grown in RPMI-1640 supplemented with 10% FCS, 2 mM L-glutamine and Pen/Strep.
Next, we tested the effect of CPBA on ferroptotic cell death in GPX4-deficient HT1080 cells whose survival depends on the expression of FSP1 in order to suppress ferroptosis in the absence of GPX4. GPX4 knockout cells overexpressing FSP1 (GPX4-KO/FSP1-OE), or GPX4-KO cells overexpressing FSP1 and re-expressing GPX4 (GPX4-KO/FSP1-OE/GPX4-OE) were incubated with serial dilutions of CPBA. Note that no ferroptosis inducers (FINs) were added. Protein expression was confirmed by Western Blot as described above (see FIG. 11).

IHH, AML12, RAW264.7 = test: FIN56 toxicity in non-transformed hepatocytes and a monocyte/macrophage cell line; type: cell-based; details: CPBA 100 μM, iFSP1 10 μM; 16 h
Protocol: Cell culture media and supplements were from Thermo Fisher Scientific, unless specified otherwise. Mouse embryonic fibroblasts (MEFs) were generated from Pgp-wildtype (Pgp^fl/fl) or heterozygous Pgp-inactivated mouse embryos (Pgp^fl/D34N) as described (Segerer et al., 2016). […]
Cells were seeded onto 96-well plates (5,000 cells per well), and treated with serial dilutions of ferroptosis-inducing compounds (erastin, BSO, RSL3, FIN56) or cytotoxic drugs (staurosporine, nocodazole, tunicamycin, paclitaxel, etoposide, menadione, rotenone, FCCP, carboplatin) in the absence or presence of CPBA or iFSP1 (100 μM or 10 μM, respectively; unless stated otherwise) or the DMSO solvent control. Ferroptotic cell death was evaluated by incubating in the absence or presence of liproxstatin-1 (100 nM), ferrostatin-1 (200 nM), or deferoxamine (100 μM). Cell viability was assessed after 16 h using AquaBluer as an indicator of viable cells according to the manufacturer's recommendations (MultiTarget Pharmaceuticals, LLC). Fluorescence (excitation, 540 nm; emission, 590 nm) was analyzed on a Clariostar microplater reader. […]

| SMILES | lipid droplets (HT1080 cells) | cell death of GPX4-KO, FSP1-dependent cells [1] | toxicity of FIN56 in non-transformed cell lines on addition of the compound (IHH, AML12, RAW264.7) |
| --- | --- | --- | --- |
| O=C(Nc1ccccc1C(=O)O)c1ccc(Oc2ccc(C(=O)Nc3ccccc3C(=O)O)cc2)cc1 [CPBA, 2-[[4-[4-[(2-carboxyphenyl)carbamoyl]phenoxy]benzoyl]amino]-benzoic acid] | triggered the accumulation of lipid droplets in HT1080 cells | die in a CPBA concentration-dependent manner | – |
| Cc1ccc(-c2c(C#N)c(N)n3c(nc4ccccc43)c2C#N)cc1 [iFSP1, reference compound] | – | – | not markedly increased by the addition of CPBA or iFSP1 |
